{"source": "paper PMC4992173", "about": "“Divergent synthesis and identification of the cellular targets of deoxyelephantopins” (Nature Communications, 2016)", "key": {"[1]": {"biological_target": "T1, PPARγ (Homo sapiens, UniProt P37231)", "T1 sequence (P37231 1-505)": "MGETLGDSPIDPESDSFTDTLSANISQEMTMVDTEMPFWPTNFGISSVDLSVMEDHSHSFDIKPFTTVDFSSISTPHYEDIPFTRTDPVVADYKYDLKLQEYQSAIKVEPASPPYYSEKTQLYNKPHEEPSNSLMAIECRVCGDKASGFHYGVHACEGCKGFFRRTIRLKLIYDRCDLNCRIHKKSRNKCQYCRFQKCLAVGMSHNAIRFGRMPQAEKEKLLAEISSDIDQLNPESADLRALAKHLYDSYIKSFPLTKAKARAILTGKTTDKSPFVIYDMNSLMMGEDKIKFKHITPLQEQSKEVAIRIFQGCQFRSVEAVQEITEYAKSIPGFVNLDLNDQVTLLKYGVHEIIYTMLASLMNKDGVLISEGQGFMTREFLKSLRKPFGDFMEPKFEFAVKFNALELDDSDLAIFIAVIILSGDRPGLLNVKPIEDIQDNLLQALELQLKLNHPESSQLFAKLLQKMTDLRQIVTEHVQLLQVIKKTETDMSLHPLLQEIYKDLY", "test": "Gel-based screening for PPARγ binders using probe 24c-Cy3", "format": "binding", "set-up": "purchased Cayman Chemical", "settings": "20 μM, 1 h, then 10 μM 24c-Cy3; 19a named first, 28 second", "experimental": "(c) Gel-based competitive screening of DEP and analogues as PPARγ antagonists against recombinant human enzyme (top). hPPARγ was treated with each compound (20 μM) for 1 h followed by treatment with 24c-Cy3 (10 μM) as probe. Quantification of fluorescence intensity in the competitive screening for PPARγ antagonists (bottom; values±s.d. are shown; n=3).\nBriefly, recombinant human PPARγ was pretreated with compounds at 20 μM concentration followed by the probe 24c-Cy3.\nSamples were then treated with 10 μM 24c-Cy3 (0.5 μl of 25 × stock in DMSO) for 1 h at room temperature in the dark. SDS–PAGE reducing loading buffer (4 ×) was added and proteins were separated using a 10% SDS–PAGE gel. Gels were visualized at 625 nm using a Hitachi FMBIO II Multi-View fluorescence scanner, then stained using silver staining. Images were quantified with ImageJ."}, "[2]": {"biological_target": "recombinant IKKβ (Homo sapiens, UniProt O14920)", "sequence (O14920 whole entry)": "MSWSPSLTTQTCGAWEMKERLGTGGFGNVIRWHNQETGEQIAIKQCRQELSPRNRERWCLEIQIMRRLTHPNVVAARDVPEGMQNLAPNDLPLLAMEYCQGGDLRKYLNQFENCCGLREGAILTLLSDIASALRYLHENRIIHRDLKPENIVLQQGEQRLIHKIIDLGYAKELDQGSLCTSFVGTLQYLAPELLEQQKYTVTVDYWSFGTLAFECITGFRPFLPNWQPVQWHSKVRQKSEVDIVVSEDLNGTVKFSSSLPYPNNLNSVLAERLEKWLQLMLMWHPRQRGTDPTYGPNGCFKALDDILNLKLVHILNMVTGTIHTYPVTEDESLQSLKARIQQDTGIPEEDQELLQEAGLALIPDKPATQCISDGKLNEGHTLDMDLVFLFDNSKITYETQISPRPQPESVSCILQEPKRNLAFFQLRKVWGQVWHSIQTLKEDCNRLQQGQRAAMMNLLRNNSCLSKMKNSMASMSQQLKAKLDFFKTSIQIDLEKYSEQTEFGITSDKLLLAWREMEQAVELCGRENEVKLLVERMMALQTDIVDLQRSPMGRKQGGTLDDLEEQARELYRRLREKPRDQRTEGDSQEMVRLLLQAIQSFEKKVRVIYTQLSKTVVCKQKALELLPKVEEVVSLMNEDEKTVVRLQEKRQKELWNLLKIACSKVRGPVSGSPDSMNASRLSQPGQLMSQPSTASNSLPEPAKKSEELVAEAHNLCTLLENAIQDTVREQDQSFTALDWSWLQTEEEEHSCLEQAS", "test": "Labeling of recombinant IKK-β with probe 24c", "format": "binding", "settings": "10 µM 24c"}, "[3]": {"biological_target": "T2, Protein transport protein Sec24C (SEC24C) (Homo sapiens, UniProt P53992)", "T2 construct": "endogenous in cells; host or cells: MCF7", "T2 sequence (P53992 whole entry)": "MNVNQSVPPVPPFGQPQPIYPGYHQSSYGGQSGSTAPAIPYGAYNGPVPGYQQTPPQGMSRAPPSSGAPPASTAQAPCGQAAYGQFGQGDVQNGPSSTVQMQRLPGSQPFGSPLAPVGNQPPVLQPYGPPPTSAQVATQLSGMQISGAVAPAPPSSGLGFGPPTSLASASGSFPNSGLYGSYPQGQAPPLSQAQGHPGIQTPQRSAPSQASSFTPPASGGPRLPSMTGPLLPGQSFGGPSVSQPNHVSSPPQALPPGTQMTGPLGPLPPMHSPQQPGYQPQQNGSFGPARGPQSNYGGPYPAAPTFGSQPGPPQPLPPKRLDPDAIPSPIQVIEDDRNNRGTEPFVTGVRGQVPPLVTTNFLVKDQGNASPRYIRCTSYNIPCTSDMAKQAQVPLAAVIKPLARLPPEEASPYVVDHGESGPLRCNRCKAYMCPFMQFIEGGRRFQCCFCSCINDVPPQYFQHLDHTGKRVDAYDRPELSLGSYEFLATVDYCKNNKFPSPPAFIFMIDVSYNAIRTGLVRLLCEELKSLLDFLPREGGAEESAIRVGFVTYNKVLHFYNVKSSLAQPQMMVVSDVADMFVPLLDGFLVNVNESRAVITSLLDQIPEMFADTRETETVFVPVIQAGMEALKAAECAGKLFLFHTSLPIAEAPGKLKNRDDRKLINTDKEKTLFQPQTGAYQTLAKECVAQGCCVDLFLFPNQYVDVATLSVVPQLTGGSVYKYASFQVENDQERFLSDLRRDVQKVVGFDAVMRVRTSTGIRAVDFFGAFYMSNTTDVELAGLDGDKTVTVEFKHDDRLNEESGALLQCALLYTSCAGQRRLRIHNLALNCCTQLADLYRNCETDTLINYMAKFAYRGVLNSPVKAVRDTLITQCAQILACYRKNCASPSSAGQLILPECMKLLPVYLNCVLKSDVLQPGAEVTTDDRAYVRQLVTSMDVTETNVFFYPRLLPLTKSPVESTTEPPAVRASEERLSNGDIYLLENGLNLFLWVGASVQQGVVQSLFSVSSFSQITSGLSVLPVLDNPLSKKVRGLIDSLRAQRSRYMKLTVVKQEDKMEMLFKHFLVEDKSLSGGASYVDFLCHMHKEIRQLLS", "test": "In situ competitive profiling in live MCF7 cells (LFQ): SEC24C", "format": "cell-based", "settings": "4 h, then 10 µM 24c, n=4", "description": "(§1) In our efforts to determine the direct molecular targets of deoxyelephantopin we first performed a gel-based competitive in situ proteomic profiling assay[41] […] While the greater conformational flexibility of probe 24c could potentially lead to more promiscuous target engagement relatively to deoxyelephantopin, it was favoured based on the fact that an alkyne moiety appended to the rigid scaffold of deoxyelephantopin may hinder some of its interactions. MCF7 cells were pretreated with various concentrations of deoxyelephantopin for 4 h, harvested, lysed and the lysates were treated with the fluorogenic probe 24c-Cy3 (10 μM; Supplementary Fig. 10). […] Furthermore, cells were pretreated with 20 μM concentration of deoxyelephantopin or 24c and the proteomic profiles were compared (Fig. 6b, Supplementary Fig. 11). Multiple bands were detected that were equally competed by both DEP and 24c, thus again confirming that 24c can be used as an acceptable clickable analogue of deoxyelephantopin in pulldown assays. Having established the optimal labelling conditions by SDS–PAGE, we next carried out a mass spectrometry-based competitive profiling assay[42] coupled with the method of stable isotope labelling of amino acids in culture (SILAC)[43]. […]\n(§2) Figure 6 Proteome-wide identification of deoxyelephantopin targets. […] Quantification was performed using label-free quantification (LFQ) method (n=4). […]"}, "[4]": {"biological_target": "T3, Cystathionine beta-synthase (CBS) (Homo sapiens, UniProt P35520)", "T3 construct": "endogenous in cells; host or cells: MCF7", "T3 sequence (P35520 whole entry)": "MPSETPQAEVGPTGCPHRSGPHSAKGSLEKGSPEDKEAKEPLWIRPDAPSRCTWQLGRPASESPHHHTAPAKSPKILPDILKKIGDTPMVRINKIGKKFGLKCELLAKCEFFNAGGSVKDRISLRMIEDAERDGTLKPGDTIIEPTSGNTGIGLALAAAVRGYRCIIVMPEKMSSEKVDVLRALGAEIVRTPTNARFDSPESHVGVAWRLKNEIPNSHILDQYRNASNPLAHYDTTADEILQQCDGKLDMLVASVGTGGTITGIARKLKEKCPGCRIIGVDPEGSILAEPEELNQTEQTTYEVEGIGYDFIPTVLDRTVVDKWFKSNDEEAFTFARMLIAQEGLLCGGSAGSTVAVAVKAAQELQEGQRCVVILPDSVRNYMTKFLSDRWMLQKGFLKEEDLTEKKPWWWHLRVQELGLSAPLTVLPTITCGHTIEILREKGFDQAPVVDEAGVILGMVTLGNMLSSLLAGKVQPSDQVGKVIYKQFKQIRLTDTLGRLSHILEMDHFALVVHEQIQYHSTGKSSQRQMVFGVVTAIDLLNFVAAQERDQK", "test": "In situ competitive profiling in live MCF7 cells (LFQ): CBS", "format": "cell-based", "settings": "protein CBS, 4 h, then 10 µM 24c, n=4", "description": "as §1, §2"}}}
{"smiles": "C=C(C)C(=O)O[C@H]1CC2=C[C@H](C/C=C\\[C@H]3OC(=O)C(=C)[C@H]13)OC2=O", "note": "[19a]", "values": [{"measurement": "rank as covalent binder to PPARγ (competition of 24c-Cy3 labelling)", "setting": "[1]", "value": "most effective covalent binder"}]}
{"smiles": "C#CCC[C@H](OC(=O)C(=C)C)[C@H]1C(=C)C(=O)O[C@@H]1c1ccccc1", "note": "[24c]", "values": [{"measurement": "covalent interaction with recombinant IKKβ", "setting": "[2]", "value": "no evidence of covalent interaction"}]}
{"smiles": "C=C(C)C(=O)O[C@H]1CC2=C[C@@H](C/C(C)=C/[C@H]3OC(=O)C(=C)[C@H]13)OC2=O", "note": "[deoxyelephantopin]", "values": [{"measurement": "LFQ ratio 20 µM Deoxyelephantopin/DMSO with 24c", "setting": "[3]", "value": 0.18}, {"measurement": "LFQ ratio 20 µM Deoxyelephantopin/DMSO with 24c", "setting": "[4]", "value": 0.00}]}
